Measurements taken from patent US7064120B2, “Tricyclic pyridyl carboxamides and derivatives thereof tocolytic oxytocin receptor antagonists” (Wyeth, priority 2001, dated 2006).

The molecules below were run against T1, human vasopressin V1a receptor subtype (Homo sapiens, UniProt P37288) (assay: Vasopressin binding in CHO cell membranes expressing human vasopressin V1a subtype receptors ([3H]Manning ligand radioligand binding)). Conditions: 100 nM.
T1 construct: host or cells: CHO cells, stably transfected (pZeoSV vector for the Thibonnier line)
In short: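 Radioligand displacement: [3H]Manning ligand, added as 8 nM stock, binds human V1a receptor in CHO-cell membranes (25–50 μg/well), pH 7.4 Tris buffer with protease inhibitors, 60 min room temperature. Bound counts collected by filter harvesting; values are percent inhibition at stated concentration or nanomolar IC50.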

T1 sequence (P37288 whole entry): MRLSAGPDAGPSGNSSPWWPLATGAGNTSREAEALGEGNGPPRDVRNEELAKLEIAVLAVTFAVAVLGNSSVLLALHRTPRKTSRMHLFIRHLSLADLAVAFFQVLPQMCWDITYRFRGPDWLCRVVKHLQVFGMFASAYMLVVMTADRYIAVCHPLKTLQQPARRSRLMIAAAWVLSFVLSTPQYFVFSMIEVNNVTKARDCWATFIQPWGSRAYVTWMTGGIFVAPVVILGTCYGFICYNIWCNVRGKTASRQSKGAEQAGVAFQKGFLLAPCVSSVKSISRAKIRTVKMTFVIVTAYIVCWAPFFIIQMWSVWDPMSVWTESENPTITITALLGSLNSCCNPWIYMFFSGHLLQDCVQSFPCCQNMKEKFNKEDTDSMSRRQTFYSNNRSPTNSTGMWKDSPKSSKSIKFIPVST

`Cc1cc(C(=O)N2Cc3ccc(C(=O)N4CCN(c5ccncc5)CC4)n3Cc3ccccc32)ccc1-c1ccccc1C(F)(F)F` [Example 1] was tested, and the “V1a % inhibition @ 100 nM” value was 9%.

Going from `COc1ccccc1-c1ccc(C(=O)N2Cc3ccc(C(=O)N(C)CCc4ccccn4)n3Cc3ccccc32)cc1C` [Example 65, 10-[(2′-Methoxy-2-methyl-[1,1′-biphenyl]-4-yl)carbonyl]-N-methyl-N-[2-(2-pyridinyl)ethyl]-10,11-dihydro-5H-pyrrolo[2,1-c][1,4]benzodiazepine-3-carboxamide] to `Cc1ccccc1-c1ccc(C(=O)N2Cc3ccc(C(=O)N(C)CCc4ccccn4)n3Cc3ccccc32)cc1C` [Example 66, 10-[(2,2′-Dimethyl-[1,1′-biphenyl]-4-yl)carbonyl]-N-methyl-N-[2-(2-pyridinyl)ethyl]-10,11-dihydro-5H-pyrrolo[2,1-c][1,4]benzodiazepine-3-carboxamide], the inhibition at 0.1 µM rises from 25% to 58%.

`COc1ccccc1-c1ccc(C(=O)N2Cc3ccc(C(=O)N(C)CCc4ccccn4)n3Cc3ccccc32)cc1` [Example 67, 10-[(2′-Methoxy-[1,1′-biphenyl]-4-yl)carbonyl]-N-methyl-N-[2-(2-pyridinyl)ethyl]-10,11-dihydro-5H-pyrrolo[2,1-c][1,4]benzodiazepine-3-carboxamide] showed an inhibition at 0.1 µM of 40%.

Same assay, conditions: value in parentheses

`Cc1cc(C(=O)N2Cc3ccc(C(=O)N4CCN(Cc5ccc[n+]([O-])c5)CC4)n3Cc3ccccc32)ccc1-c1ccccc1C(F)(F)F` [Example 2, 10-{[2-Methyl-2′-trifluoromethyl-[1,1′-biphenyl]-4-yl]carbonyl}-3-({4-[(1-oxidopyridin-3-yl)methyl]piperazin-1-yl}carbonyl)-10,11-dihydro-5H-pyrrolo[2,1-c][1,4]benzodiazepine] and `Cc1cc(C(=O)N2Cc3ccc(C(=O)N4CCN(Cc5ccc[n+]([O-])c5C)CC4)n3Cc3ccccc32)ccc1-c1ccccc1C(F)(F)F` [Example 3, 3-({4-[(2-Methyl-1-oxidopyridin-3-yl)methyl]piperazin-1-yl}carbonyl)-10-{[2-methyl-2′-trifluoromethyl-[1,1′-biphenyl]-4-yl]carbonyl}-10,11-dihydro-5H-pyrrolo[2,1-c][1,4]benzodiazepine] cannot be ordered by IC50: 3180 nM for the first, > 3000 nM for the second.

`Cc1cc(C(=O)N2Cc3ccc(C(=O)N(C)Cc4ccc[n+]([O-])c4)n3Cc3ccccc32)ccc1-c1ccccc1C(F)(F)F` [Example 4, N-Methyl-10-{[2-methyl-2′-trifluoromethyl-[1,1′-biphenyl]-4-yl]carbonyl}-N-[(1-oxidopyridin-3-yl)methyl]-10,11-dihydro-5H-pyrrolo[2,1-c][1,4]benzodiazepine-3-carboxamide] and `COc1cc(C(=O)N2Cc3ccc(C(=O)N(C)Cc4cccnc4)n3Cc3ccccc32)ccc1-c1ccccc1C(F)(F)F` [Example 7, 10-{[2-Methoxy-2′-trifluoromethyl-[1,1′-biphenyl]-4-yl]carbonyl}-N-methyl-N-(pyridin-3-ylmethyl)-10,11-dihydro-5H-pyrrolo[2,1-c][1,4]benzodiazepine-3-carboxamide] are within 1.5-fold of each other in IC50: 792 nM for the first, 803 nM for the second.

First: COc1cccc(-c2ccc(C(=O)N3Cc4ccc(C(=O)N(C)CCc5ccccn5)n4Cc4ccccc43)cc2C)c1 [Example 62, 10-[(3′-Methoxy-2-methyl-[1,1′-biphenyl]-4-yl)carbonyl]-N-methyl-N-[2-(2-pyridinyl)ethyl]-10,11-dihydro-5H-pyrrolo[2,1-c][1,4]benzodiazepine-3-carboxamide]
Second: COc1cc(-c2ccccc2C)c(Cl)cc1C(=O)N1Cc2ccc(C(=O)N(C)CCc3ccccn3)n2Cc2ccccc21 [Example 63, 10-[(6-Chloro-3-methoxy-2′-methyl-[1,1′-biphenyl]-4-yl)carbonyl]-N-methyl-N-[2-(2-pyridinyl)ethyl]-10,11-dihydro-5H-pyrrolo[2,1-c][1,4]benzodiazepine-3-carboxamide]
The IC50 of the first is 1.5-fold lower: 177 nM for the first, 273 nM for the second.
